From paper PMC4374761, “Pharmacokinetics and Metabolism of 4R-Cembranoid” (PLoS ONE, 2015)
Several values for one entry are separate records, joined by “and”; a condition that tells them apart may be missing. Identical values can stand only once. Like-named read-outs stand apart in the source and are kept apart here.

How the values were obtained:
[1] = Metabolic stability / metabolite detection in human liver microsomes
Description: (§1) Pooled male and female human and rat liver microsomes were obtained commercially from BD Bioscience (San Jose, CA) and Xenotech (Lenexa, KS), respectively. […] Reactions were started by the addition of microsomes and stopped by removing 100 μL aliquots at each time point. […] As positive control, 10μM midazolam was incubated with microsomes for 0, 15, 30 and 60 min in a 37°C water bath and with heat-inactivated microsomes for 0 and 60 min. […] All assays were done in duplicates.
(§2) Reactions were stopped by removing 150 μL aliquots at 0, 5, 15, and 30 min and mixing with acetonitrile containing hexyl nicotinate as internal standard. […] Samples were analyzed in full-scan mode with MS/MS product-ion spectra generated for detected metabolite masses. This was performed using the EMS (enhanced MS scan) mode of the mass spectrometer with IDA (independent data acquisition) experiments to produce MS/MS product-ion spectra for masses detected at sufficient intensities. […] All assays were done in duplicate.

[2] = Metabolic stability / metabolite detection in rat liver microsomes
Description: as §1, §2

[3] = Plasma and brain 4R concentrations and pharmacokinetics in male rats; assay type: in vivo, Sprague-Dawley rat; conditions: for Kp at 1.5 h: brain and plasma, 90 min after dose, read-out: Ratio Cmax brain/ plasma; for Kp at 1.5 h / Cmax / Tmax / half-life: 6 mg/kg; for bioavailability: read-out: F (bioavailability)
Description: Twelve-week old male Sprague-Dawley rats weighing 307–373 g at the time of the experiment were used. […] The dosing volume of injection was 0.5 mL/kg for the i.m. and s.c. routes and 5 mL/kg for the i.v. route. […] Animal procedure for housing and care was performed according to the National Research Council (NRC) Guide for the Care and Use of Laboratory Animals and the Animal Welfare Standards incorporated in 9 Code of Federal Regulations Part 3, 1991. The animals had 12 hr light/dark cycles and at least 10 room volumes per hour with no recirculation of air. Purina certified rodent chow and water was provided ad libitum.
Blood samples were collected via a jugular vein catheter at each of the following time points: 2, 5, 10, 20, 45, 60, 90 min and 2, 4, 8 hr. […] The samples were vortexed, centrifuged and the supernatants removed. The supernatants were evaporated to dryness and reconstituted in a solvent mixture containing 50/50/0.1 acetronile/water/formic acid (v/v/v) with 10ng/mL hexyl nicotinate as internal standard. […] Rat brains were collected at 10, 60 or 90 min, and 8 hr post dose and frozen at -70°C. On the day of the analysis, the brains were homogenized in PBS using 4 parts phosphate buffer and 1 part brain (g/g). […] The lower limit of quantitation of the LC-MS/MS was 20.0 ng/ml for plasma and 100 ng/g for brain.
Parameters were calculated for each individual animal. The peak concentration in plasma (Cmax) and the corresponding time of maximum concentration (Tmax) were determined directly from the data. The area under the plasma concentration-time curve (AUC) from time 0–8 hr was calculated using the log/linear trapezoidal (i.v. route) or linear up/log down trapezoidal (i.m. and s.c routes) methods. The dose administered was input to the program as mg/kg, and as a result no additional corrections for individual body weights of the animals were necessary. The following parameters and constants were determined for the three groups: observed maximum plasma concentration (Cmax), time to maximum plasma concentration (Tmax), area under the plasma concentration-time curve to the last time point (AUClast), area under the plasma concentration-time curve extrapolated to infinity (AUCinf), terminal phase elimination half-life (t1/2). Bioavailability (F) after i.m. and s.c. administration was calculated using their respective AUCinf values divided by the AUCinf value of the i.v. group.

[4] = 4R plasma stability in rat plasma; assay type: in vitro ADME; conditions: 10 μM 4R
Description: The samples were centrifuged at 18,000 x g for 10 min and the supernatants (100–250 μL) transferred to an HPLC vial containing 900 μl of 60% acetonitrile. The LC-MS/MS analysis was carried out using a high-performance liquid chromatography system consisting of a Shimadzu LC-20AD pump, (Shimadzu Scientific Instruments, Columbia, MA), and a CTC analytics PAL autosampler operating at 10°C (Leap technologies, Carrboro, NC). The MS instrument used was a 4000 QTrap triple quadrupole tandem mass spectrometer (Applied Biosystems/MDS Sciex, Foster City, CA). Electrospray ionization in positive ion mode (ESI+) was used. The detection of 4R was performed using the multiple reaction monitoring (MRM) mode. […] All samples were assayed in duplicate.

[5] = 4R plasma stability in human plasma; assay type: in vitro ADME; conditions: 10 μM 4R, 0-60 min at 37°C
Description: The samples were centrifuged at 18,000 x g for 10 min and the supernatants (100–250 μL) transferred to an HPLC vial containing 900 μl of 60% acetonitrile. The LC-MS/MS analysis was carried out using a high-performance liquid chromatography system consisting of a Shimadzu LC-20AD pump, (Shimadzu Scientific Instruments, Columbia, MA), and a CTC analytics PAL autosampler operating at 10°C (Leap technologies, Carrboro, NC). The MS instrument used was a 4000 QTrap triple quadrupole tandem mass spectrometer (Applied Biosystems/MDS Sciex, Foster City, CA). Electrospray ionization in positive ion mode (ESI+) was used. […] All samples were assayed in duplicate.

[6] = Solubility of 4R in dosing vehicle; assay type: physicochemical; conditions: 12 mg/mL in 10% DMSO and 90% PEG400, room temperature
Description: The solution was sterile filtered using a Millipore Millex-GS 0.22 μm syringe filter. Dose formulations were prepared on Day 1 prior to dose administration and were maintained at room temperature until administration to the animals.

[7] = 10 μM, heat-inactivated microsomes, 60 min
[8] = male, Sprague-Dawley, rat, plasma, im, 6 mg/kg i.m.
[9] = male, Sprague-Dawley, rat, plasma, iv, 6 mg/kg i.v.
[10] = male, Sprague-Dawley, rat, plasma, sc, 6 mg/kg s.c.
[11] = 10 μM, 5 min, metabolite detection experiment
[12] = 10 μM, 15 min, metabolite detection experiment
[13] = 50 μM, 30 min, metabolite detection experiment
[14] = both, human, liver microsomes, pH 7.4
[15] = both, rat, liver microsomes, pH 7.4

## Cc1ncc2n1-c1ccc(Cl)cc1C(c1ccccc1F)=NC2 [MDZ, Midazolam, reference compound]
[1]; [7]
  percent remaining with heat-inactivated microsomes: 89%
[2]; [7]
  percent remaining with heat-inactivated microsomes: 108%

## C/C1=C\[C@H](O)C[C@@](C)(O)/C=C/C(C(C)C)CC/C(C)=C/CC1 (stereo partly drawn) [4R, (1S, 2E, 4R, 6R, 7E, 11E)-cembra-2,7,11-triene-4,6-diol]
[3]; 6 mg/kg i.m.
  Brain Cmax: 329 ng/g and 329 ± 50 ng/g
  time to maximum brain level: 90 min
[3]; 6 mg/kg i.m., by 8 hr post dose
  plasma 4R level: below the LLOQ
[3]; 6 mg/kg i.v.
  brain Cmax, times higher than s.c. or i.m.: 20 times
[3]; 6 mg/kg i.v., at 10 min
  Brain Cmax: 6516 ng/g and 6516 ± 1091 ng/g
[3]; 6 mg/kg i.v., post dose
  time to reach the brain: ≤ 10 min
[3]; 6 mg/kg s.c.
  Brain Cmax: 323 ng/g and 323 ± 90 ng/g
  time to maximum brain level: 90 min
[3]; 6 mg/kg s.c. or i.m.
  Brain Cmax: 300 to 400 ng/mL
[3]; 6 mg/kg s.c., at 90 min
  maximum mean 4R brain level: 323 ± 90
[3]; 6 mg/kg s.c., by 8 hr post dose
  plasma 4R level: below the LLOQ
[3]; male, Sprague-Dawley, rat, im, 6 mg/kg i.m.
  Kp at 1.5 h: 2.49
[3]; male, Sprague-Dawley, rat, sc, 6 mg/kg s.c.
  Kp at 1.5 h: 2.48
[3]; male, Sprague-Dawley, rat, brain, intravenous, 6 mg/kg i.v., at 1 hr post dose
  concentration at 1 hr: 3000 ± 771 ng/g
[3]; male, Sprague-Dawley, rat, im, 6 mg/kg i.m., plasma
  AUC(0-inf): 395 ± 138 ng·h/mL
[3]; male, Sprague-Dawley, rat, iv, 6 mg/kg i.v., plasma
  AUC(0-inf): 1140 ± 224 ng·h/mL
[3]; [8]
  Cmax: 163 ng/mL
  Tmax: ~1 h
[3]; male, Sprague-Dawley, rat, plasma, im, 6 mg/kg i.m., male rats, read-out: t1/2 (converted)
  half-life: ~1.5 h
[3]; male, Sprague-Dawley, rat, plasma, intramuscular, 6 mg/kg i.m., AUCinf relative to i.v.
  bioavailability: 35%
[3]; male, Sprague-Dawley, rat, plasma, intramuscular, 6 mg/kg i.m., at 1 hr
  concentration at 1 hr: 157 ± 86 ng/mL
[3]; male, Sprague-Dawley, rat, plasma, intravenous, 6 mg/kg i.v., at 5 min
  concentration at 5 min: 975 ± 104 ng/mL
[3]; male, Sprague-Dawley, rat, plasma, intravenous, 6 mg/kg i.v., by 8 hr post dose
  concentration at 8 hr: < 20 ng/mL
[3]; [9]
  Cmax: 1020 ± 49 ng/mL
  bioavailability: 100%
[3]; male, Sprague-Dawley, rat, plasma, iv, 6 mg/kg i.v., male rats, read-out: t1/2 (converted)
  half-life: 0.6 ± 0.1 h
[3]; male, Sprague-Dawley, rat, plasma, iv, 6 mg/kg i.v., read-out: elimination t1/2
  half-life: 0.6 h
[3]; [10]
  Cmax: 138 ± 28 ng/mL
  Tmax: 1 h
[3]; male, Sprague-Dawley, rat, plasma, sc, 6 mg/kg s.c., male rats, read-out: t1/2 (converted)
  half-life: ~1.5 h
[3]; male, Sprague-Dawley, rat, plasma, subcutaneous, 6 mg/kg s.c., AUCinf relative to i.v.
  bioavailability: 41%
[3]; male, Sprague-Dawley, rat, plasma, subcutaneous, 6 mg/kg s.c., at 1 hr
  concentration at 1 hr: 134 ± 34 ng/mL
[3]; male, Sprague-Dawley, rat, sc, 6 mg/kg s.c., plasma
  AUC(0-inf): 466 ± 56 ng·h/mL
[1]; [11]
  percent 4R remaining: 18%
[1]; [12]
  percent 4R remaining: less than 2%
[1]; [13]
  mean percent 4R remaining: ≤ 7.3%
[1]; [14]
  remaining at 5 min, 1 μM: 8%
  remaining at 5 min, 10 μM: 15%
  remaining at 0.25 h, 1 μM: 4%
  remaining at 0.25 h, 10 μM: < 2%
[2]; [11]
  percent 4R remaining: 34%
[2]; [12]
  percent 4R remaining: less than 2%
[2]; [13]
  mean percent 4R remaining: ≤ 7.3%
[2]; [15]
  remaining at 5 min, 1 μM: 19%
  remaining at 5 min, 10 μM: 29%
  remaining at 0.25 h, 1 μM: 4%
  remaining at 0.25 h, 10 μM: < 2%
[4]; 0-60 min at 37°C
  mean percent 4R content versus control: 97–101%
[4]; 60 min at room temperature
  mean percent 4R content: 96%
[5]
  mean percent 4R content versus control: 96–103%
[6]
  appearance of 4R formulation (solubility): clear colorless solution
